This assay has as its target T1, hAGT (Homo sapiens, UniProt P16455).
T1 construct: gene MGMT; parental hAGT
T1 sequence (P16455 1-207): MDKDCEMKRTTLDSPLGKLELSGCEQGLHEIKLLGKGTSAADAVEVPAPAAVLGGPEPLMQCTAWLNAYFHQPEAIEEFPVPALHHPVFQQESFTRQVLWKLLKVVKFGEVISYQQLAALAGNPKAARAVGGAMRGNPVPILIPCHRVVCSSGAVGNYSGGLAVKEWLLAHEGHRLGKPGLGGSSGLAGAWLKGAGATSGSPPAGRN
The assay is described as follows: biochemical. Particulars: read-out: hAGT kapp x 10^3. Also on record: fluorescence polarization labeling kinetics of purified tag proteins with TMR substrates, apparent second-order rate constant.

On to `CN(C)c1ccc2c(-c3cc(C(=O)NCc4ccc(COc5cc(Cl)nc(N)n5)cc4F)ccc3C(=O)[O-])c3ccc(=[N+](C)C)cc-3oc2c1` [compound 22, CF–TMR], for which the kinact/KI turned out to be 550 ± 50 M⁻¹ s⁻¹.

For `CN(C)c1ccc2c(-c3cc(C(=O)NCc4ccc(COc5cc(C(F)(F)F)nc(N)n5)cc4)ccc3C(=O)[O-])c3ccc(=[N+](C)C)cc-3oc2c1` [compound 4, CF3P–TMR], the kinact/KI was found to be 640 ± 40 M⁻¹ s⁻¹.

Regarding `CN(C)c1ccc2c(-c3cc(C(=O)NCc4ccc(COc5cc(C(F)(F)F)nc(N)n5)cc4F)ccc3C(=O)[O-])c3ccc(=[N+](C)C)cc-3oc2c1` [compound 30, TF–TMR], the kinact/KI came to 520 ± 60 M⁻¹ s⁻¹.

On to `CN(C)c1ccc2c(-c3cc(C(=O)NCc4ccc(COc5cc(Cl)nc(N)n5)cc4)ccc3C(=O)[O-])c3ccc(=[N+](C)C)cc-3oc2c1` [CP–TMR], for which the kinact/KI was 800 ± 40 M⁻¹ s⁻¹.

The values are drawn from publication PMC12568630, “SNAP-tag2 for faster and brighter protein labeling” (Nature Chemical Biology, 2025).
